Data as given in US5183743A, “Chromogenic dibenzoxazepinone and dibenzothiazepinone enzyme substrates” (Miles Inc., priority 1991, dated 1993).

What was measured:
[1] = UV/visible absorption in 50 mM phosphate buffer pH 7.4 containing 5 mM MgCl2; assay type: physicochemical; conditions: 50 mM phosphate buffer pH 7.4, 5 mM MgCl2
Procedure: (§1) When dissolved in 50 mM phosphate buffer at pH 7.4 containing 5 mM magnesium chloride (MgCl2) compound (23)+(24) (mixture) had λmax of 454 nm (ε =22,000) and 344 nm (ε =14,000).

β-galactosidase = assay: enzymatic cleavage of substrate to (20) by β-galactosidase; assay type: biochemical; conditions: in the presence of β-galactosidase
Procedure: as §1

[2] = protonated vs deprotonated form; cited from earlier work

Compound | ε at λmax 344 nm ([1]; 344 nm) | ε at λmax 454 nm ([1]; 454 nm) | λmax ([1]; long-wavelength maximum) [nm] | λmax ([1]; second maximum) [nm] | Km (β-galactosidase) [µM] | rate (Kcat) of cleavage to (20) (β-galactosidase) | shift in absorption (λmax) between the protonated form and the deprotonated form [2] [nm]
8-β-D-Galactopyranosyloxy-11-methyl-11H-dibenz[b,e][1,4]oxazepin-1-one(23) and 2-β-D-galactopyranosyloxy-11-methyl-11H-dibenz[b,e][-1,4]oxazepin-8-one (24) [(23)+(24)] | 14,000 | 22,000 | 454 | 344 | 75 | 1.32×10^4 mol. min^-1 /mol. active site | 
CC1Oc2cc(O)ccc2N=C2C=CC(=O)C=C21 (stereo not shown) [(20)] |  |  |  |  |  |  | 122
